Reference: PubChem BioAssay (NCI)
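Briefly, cells in 96-well plates were exposed to five compound concentrations for 48 h, and endpoints were estimated by linear interpolation. At the GI50, growth is halved. Definition used: TGI = concentration required for complete inhibition of growth.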

How the values were obtained:
Assay in all cases: NCI anticancer screen, dose series, 48 h
RXF 393 renal = test system: RXF 393 renal
OVCAR-5 ovarian = test system: OVCAR-5 ovarian
SK-OV-3 ovarian = test system: SK-OV-3 ovarian
A498 renal = test system: A498 renal
HS 578T breast = test system: HS 578T breast
HL-60(TB) leukemia = test system: HL-60(TB) leukemia
SF-268 CNS = test system: SF-268 CNS
SK-MEL-28 melanoma = test system: SK-MEL-28 melanoma
ACHN renal = test system: ACHN renal
SK-MEL-5 melanoma = test system: SK-MEL-5 melanoma
NCI-H226 lung = test system: NCI-H226 lung
CAKI-1 renal = test system: CAKI-1 renal
MOLT-4 leukemia = test system: MOLT-4 leukemia
KM12 colon = test system: KM12 colon
MALME-3M melanoma = test system: MALME-3M melanoma
TK-10 renal = test system: TK-10 renal
RPMI-8226 leukemia = test system: RPMI-8226 leukemia
NCI/ADR-RES ovarian = test system: NCI/ADR-RES ovarian
SF-539 CNS = test system: SF-539 CNS
SN12C renal = test system: SN12C renal
CCRF-CEM leukemia = test system: CCRF-CEM leukemia
HOP-92 NSCLC = test system: HOP-92 NSCLC
COLO 205 colon = test system: COLO 205 colon
PC-3 prostate = test system: PC-3 prostate
T-47D breast = test system: T-47D breast
NCI-H460 lung = test system: NCI-H460 lung
SNB-75 CNS = test system: SNB-75 CNS
NCI-H522 lung = test system: NCI-H522 lung
SNB-19 CNS = test system: SNB-19 CNS
SR leukemia = test system: SR leukemia
MDA-MB-435 = test system: MDA-MB-435
UACC-62 melanoma = test system: UACC-62 melanoma
SW-620 colon = test system: SW-620 colon
MDA-MB-231 breast = test system: MDA-MB-231 breast

## N=C(N)c1ccc(-c2ccc(/C=C/c3ccccc3)s2)cc1
RXF 393 renal
  GI50: 1.65 µM
  TGI: 3.13 µM
OVCAR-5 ovarian
  GI50: 1.47 µM
  TGI: 2.87 µM
SK-OV-3 ovarian
  GI50: 2.07 µM
  TGI: 4.9 µM
A498 renal
  GI50: 11.9 µM
  TGI: 34.1 µM
HS 578T breast
  GI50: 2.58 µM
  TGI: 7.32 µM
HL-60(TB) leukemia
  GI50: 2.17 µM
  TGI: 4.67 µM
SF-268 CNS
  GI50: 4.28 µM
  TGI: 39.7 µM
SK-MEL-28 melanoma
  GI50: 1.65 µM
  TGI: 3.07 µM
ACHN renal
  GI50: 1.67 µM
  TGI: 3.03 µM
SK-MEL-5 melanoma
  GI50: 2.6 µM
  TGI: 7.12 µM
NCI-H226 lung
  GI50: 6.82 µM
  TGI: 46 µM

## CCCc1cn2c(/C=N/N=C(N)N)c(-c3cccc([N+](=O)[O-])c3)nc2s1
CAKI-1 renal
  TGI: 3.83 µM
MOLT-4 leukemia
  TGI: 2.81 µM
KM12 colon
  TGI: 3.57 µM
MALME-3M melanoma
  TGI: 2.82 µM
TK-10 renal
  TGI: 0.405 µM
SK-OV-3 ovarian
  TGI: 5.3 µM
RPMI-8226 leukemia
  TGI: 4.36 µM
NCI/ADR-RES ovarian
  TGI: 10.5 µM
A498 renal
  TGI: 33.2 µM
SF-539 CNS
  TGI: 3.15 µM
SN12C renal
  TGI: 2.58 µM
HS 578T breast
  TGI: 7.51 µM
CCRF-CEM leukemia
  TGI: 2.32 µM
HOP-92 NSCLC
  TGI: 32.4 µM
COLO 205 colon
  TGI: 4.35 µM
HL-60(TB) leukemia
  TGI: 4.75 µM
PC-3 prostate
  TGI: 8.19 µM
T-47D breast
  TGI: 4.99 µM
NCI-H460 lung
  TGI: 5.37 µM
SNB-75 CNS
  TGI: 3.1 µM
NCI-H522 lung
  TGI: 4.47 µM
SNB-19 CNS
  TGI: 4.86 µM
SK-MEL-28 melanoma
  TGI: 3.18 µM
SR leukemia
  TGI: 3.89 µM
ACHN renal
  TGI: 3.38 µM
MDA-MB-435
  TGI: 3.46 µM
SK-MEL-5 melanoma
  TGI: 3.9 µM
NCI-H226 lung
  TGI: 3.28 µM
UACC-62 melanoma
  TGI: 3.15 µM
SW-620 colon
  TGI: 8.42 µM
MDA-MB-231 breast
  TGI: 3.04 µM
